# Assay results taken from US9211244B2, “Method for anti-skin aging using caffeamide derivative” (CHINA MEDICAL UNIVERSITY, priority 2013, dated 2015).
# What was measured:
# c-Fos = assay: Inhibition test of AP-1 gene transcription factors, western blot; type: cell-based, human; conditions: 10 μM; UVB 40 mJ/cm^2
# Source text: When cells are irradiated by UV rays, JNK, p38 and c-Jun in the cells will translocated into the nucleus, and c-For will translocate into the nucleus under the regulation of ERK and p38. The two subunits of c-Jun and c-Fos will combine to form an AP-1 gene transcription factor to participate in gene expression process and increase the mRNA transcription level of MMP-1. On the other hand, the two subunits can also reduce the gene expression level of procollagen al of Type I collagen. Therefore, in this experiment, the expression of AP-1 in the nucleus was analyzed by western blotting.
# However, after the cells were treated with the compound of formula (2) prepared in Example 1, the protein expression levels of c-Fos, p-c-Jun, and c-Jun induced by UVB were inhibited in a concentration dependent way. Specifically, when the concentration of the compound of formula (2) was 10 μM, the expression level of c-Fos was 1.1 as compared to that of the untreated cells.
# p-p38 = assay: Inhibition test of the phosphorylation of MAPK, western blot; type: cell-based, human; conditions: 5 μM; UVB 40 mJ/cm^2
# Description: It has been known that the skin photo-aging caused by UV rays will increase the content of MMPs in the dermis by the phosphorylation of MAPK. In this experiment, the effect of caffeamide derivative on the phosphorylation of MAPK in the cells was analyzed by western blotting.
# After being treated with the compound of formula (2) prepared in Example 1, the protein expression levels of the MAPKs induced by UVB were inhibited in a concentration dependent way. Specifically, when the concentration of the compound of formula (2) was 10 μM, the expression level of P-ERK was 1.1 times as compared to that of the untreated cells. When the concentration of the compound of formula (2) was 5 μM, the expression levels of p-JNK and p-p38 were both 1.1 times as compared to that of the untreated cells.
# [1] = Scavenging test of DPPH free radical; type: biochemical; conditions: for Scavenging efficiency (%): 200 μM DPPH, 30 minutes
# Description: DPPH (1,1-diphenyl-2-picrylhydrazyl) was used as a source of free radicals to examine the scavenging efficiency of the caffeamide derivatives prepared in Example 1 on free radicals. […] The mixtures were placed in the dark at room temperature for 30 minutes and its absorbance at 517 nm was measured by an enzyme immunoassay analyzer. In this experiment, 50 volume % propanediol was used to replace extracts and to be a control group, ascorbic acid (vitamin C) was used as a positive control group, and methanol was used to replace DPPH as the background value. The scavenging efficiency of caffeamide derivatives on free radicals was examined by the formula blow, and the results are shown in Table 2, FIG. 1a, and FIG. 1b. Scavenging efficiency(%)=[the absorbance of the control group−the absorbance of the experimental group/the absorbance of the control group]×100%.
# procollagen-1 = assay: Promotion test of the expression of collagen, western blot; type: cell-based, human; conditions: 25 μM; UVB 40 mJ/cm^2
# Description: (§1) It has been known that Smad3 protein can promote the expression level of procollagen-1, and Smad7 protein can inhibit the expression level of Smad3 protein. After cells were irradiated with UV rays, the expression levels of procollagen-1 and Smad3 protein will reduce and the expression level of Smad7 protein will increase. Therefore, in this experiment, the expression levels of intracellular procollagen-1 protein, Smad3 protein and Smad7 protein were analyzed by western blotting.
# (§2) Specifically, when the concentration of the compound of formula (2) was 25 μM, the protein expression level of Smad7 was 1.1 times as compared to that of the untreated cells.
# Smad3 = assay: as above; type: cell-based, human; conditions: 25 μM; UVB 40 mJ/cm^2
# Description: as §1, §2
# Smad7 = assay: as above; type: cell-based, human; conditions: 25 μM; UVB 40 mJ/cm^2
# Description: as §1, §2
# skin of white rabbit = assay: Primary skin irritation test; type: in vivo, New Zealand white rabbit
# Description: First, 20 mg (low dosage) and 80 mg or 100 mg (high dosage) of the compounds of formula (1) and formula (2) prepared in Example 1 were dissolved in 1 ml of 40% PEG-400 solution, respectively. Next, a New Zealand white rabbit was fixed on a rabbit cage and the fur on its back was clipped. A color pen was used to draw six squares (2.5 cm×2.5 cm for each square) of smearing region. The six squares were divided into keratin intact group and keratin abraded group. In the keratin abraded group, a sterile needle was used to scrape four parallel lines inside the squares on the back of the white rabbit to damage the keratin layer, but without bleeding. Low dosage and high dosage of compounds of formula (1) or formula (2) were smeared inside the squares evenly. After 24 hours, the skin of white rabbit was wiped with physiologic saline solution to remove compounds of formula (1) or formula (2). […] The observation time should be extended when the irritation was shown.
# The statistical method of this test was analyzed by ANOVA (analysis of variance) and Student's t-test; p<0.05 indicates a statistical significance. Each experiment was performed over three times, and the results are shown by the standard error of the mean (mean±standard error). The results are shown in Table 7A, Table 7B, FIGS. 11a to 11d, and FIGS. 12a to 12d.
compound,measurement,setting,value
O=C(C=Cc1ccc(O)c(O)c1)NCCc1ccc(Br)cc1 [Compound of formula (2)],expression level of c-Fos as compared to that of the untreated cells,c-Fos,1.1
same,expression level of p-p38 as compared to that of the untreated cells,p-p38,1.1 times
same,Scavenging efficiency (%),[1]; 1 μM,6.4 ± 4.9%
same,Scavenging efficiency (%),[1]; 5 μM,12.9 ± 3.5%
same,Scavenging efficiency (%),[1]; 10 μM,26.5 ± 0.9%
same,Scavenging efficiency (%),[1]; 25 μM,62.1 ± 2.9%
same,Scavenging efficiency (%),[1]; 50 μM,96.6 ± 0.4%
same,EC50,"[1]; DPPH free radical scavenging, read-out: SC50 (the source's name)",20 ± 1 µM
same,"protein expression level of procollagen-1 decreased by UVB, reversed to",procollagen-1,0.4 times
same,"protein expression level of Smad3 inhibited by UVB, reversed to",Smad3,0.5 times
same,protein expression level of Smad7 as compared to that of the untreated cells,Smad7,1.1 times
same,"primary irritation index (PII), mean ± standard error","skin of white rabbit; 20 mg, 24 hour, abraded skin",0.0 ± 0.0
same,"primary irritation index (PII), single rabbits 1-3","skin of white rabbit; 20 mg, 24 hour, abraded skin",0
same,"primary irritation index (PII), mean ± standard error","skin of white rabbit; 20 mg, 24 hour, intact skin",0.0 ± 0.0
same,"primary irritation index (PII), single rabbits 1-3","skin of white rabbit; 20 mg, 24 hour, intact skin",0
same,"primary irritation index (PII), mean ± standard error","skin of white rabbit; 20 mg, 72 hour, abraded skin",0.0 ± 0.0
same,"primary irritation index (PII), single rabbits 1-3","skin of white rabbit; 20 mg, 72 hour, abraded skin",0
same,"primary irritation index (PII), mean ± standard error","skin of white rabbit; 20 mg, 72 hour, intact skin",0.0 ± 0.0
same,"primary irritation index (PII), single rabbits 1-3","skin of white rabbit; 20 mg, 72 hour, intact skin",0
same,"primary irritation index (PII), mean ± standard error","skin of white rabbit; 80 mg, 24 hour, abraded skin",0.7 ± 0.6
same,"primary irritation index (PII), mean ± standard error","skin of white rabbit; 80 mg, 24 hour, intact skin",0.0 ± 0.0
same,"primary irritation index (PII), single rabbits 1-3","skin of white rabbit; 80 mg, 24 hour, intact skin",0
same,"primary irritation index (PII), mean ± standard error","skin of white rabbit; 80 mg, 72 hour, abraded skin",0.3 ± 0.6
same,"primary irritation index (PII), mean ± standard error","skin of white rabbit; 80 mg, 72 hour, intact skin",0.0 ± 0.0
same,"primary irritation index (PII), single rabbits 1-3","skin of white rabbit; 80 mg, 72 hour, intact skin",0
